Substitutions are numbered along the chain they refer to.
Columns and labels:
[1] = system: Aurora C; parameters: method as in Carpinelli et al., 2007; Fraedrich et al., 2012; conditions: ref Carpinelli et al., 2007; Fraedrich et al., 2012; cited from earlier work
[2] = target: T1, Aurora A (Homo sapiens, UniProt O14965); assay: Global fit of binding and dissociation kinetics (KinTek Explorer) and constants calculated from microscopic rate constants; conditions: for weakening of overall affinity by the DFG-in and -out equilibrium: DFG-out binders
T1 construct: made in house; host or cells: E. coli BL21(DE3)
T1 sequence (O14965 122-403): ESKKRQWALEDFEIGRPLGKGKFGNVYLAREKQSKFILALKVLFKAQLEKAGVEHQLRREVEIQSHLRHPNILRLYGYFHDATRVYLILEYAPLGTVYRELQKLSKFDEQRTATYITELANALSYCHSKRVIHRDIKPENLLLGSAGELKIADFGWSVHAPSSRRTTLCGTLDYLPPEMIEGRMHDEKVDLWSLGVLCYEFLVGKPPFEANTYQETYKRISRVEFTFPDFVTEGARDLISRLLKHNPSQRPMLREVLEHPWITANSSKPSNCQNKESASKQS
Protocol: (§1) The rapid kinetics were studied using a stopped-flow spectrophotometer (SX20 series from Applied Photophysics Ltd). The flow system was made anaerobic by rinsing with degassed buffer comprised of 50 mM HEPES, 50 mM NaCl, 20 mM MgCl2, 5 mM TCEP, 5% DMSO, pH 7.30 to minimize photobleaching. The stock solutions of Aurora A and all drugs were made anaerobic by degassing with ThermoVac (MicroCal) at the desired temperature. In general, a solution of 5 μM Aurora A was loaded in one syringe and quickly mixed with drug, prepared in the same buffer, in the other syringe (mixing ratio 1:10). […] For each drug concentration, at least five replicate measurements were made and these transients were averaged. Analysis was performed by fitting the individual trace to exponential equations using Pro-Data Viewer (Applied Photophysics Ltd) or with Kinesyst 3 software (TgK Scientific) and error bars denote the standard errors as obtained from the fit. KaleidaGraph version 4.5.3 (Synergy) was used for data analysis and plotting.

[3] = target: T2, dephosphorylated Aurora A (Homo sapiens, UniProt O14965); assay: Stopped-flow intrinsic tryptophan fluorescence drug binding kinetics
T2 construct: made in house; host or cells: E. coli BL21(DE3)
T2 sequence (O14965 122-403): T1 sequence (O14965 122-403)
Protocol: as §1
The approximate values of k1 and k−1 obtained from fitting to this equation are used as starting values for the global fit.

[4] = target: T1, Aurora A; assay: mant-ATP binding kinetics by stopped-flow FRET from Trp, with global fit; conditions: 10°C
Protocol: Inhibitor binding followed by an induced-fit step:(3) Eout+ I⇌koffkonEout⋅I⇌k−3k3Eout∗⋅I K2K3KD=K2∗K3/(K3+1)
FRET using intrinsic tryptophan fluorescence is used to monitor mant-ATP (obtained from Jena Bioscience) binding kinetics to Aurora A at 10°C. In the binding experiment or kon , increasing concentration of mant-ATP were quickly mixed to 0.5 µM Aurora A (ratio 1:10, excitation at 295 nm, emission cut-off at 395 nm). In the experiment to measure the release of mant-ATP or koff , 10 µM/10 µM Aurora A/mant-ATP complex was diluted with buffer (ratio 1:10). A significant decrease in the fluorescence intensity of Aurora A (excitation at 295 nm, emission cut-off at 395 nm) can be seen due to the mant-ATP release.

[5] = target: T3, Biotinylated T288V Aurora A (Homo sapiens, UniProt O14965, T288V); assay: Creoptix WAVE waveguide interferometry (double jump, slow-off, macroscopic KD); assay type: binding; conditions: 25°C; complex formed after 1 hour of incubation
T3 construct: made in house
T3 sequence (O14965 122-403 T288V): T1 sequence (O14965 122-403) with T167V
Protocol: All chemicals were purchased from GE Healthcare, unless otherwise stated. The protocols in the WAVE control software for conditioning of the chip, immobilization of proteins and performing kinetics experiments were followed. In short, the polycarboxylate chip (PCH) was activated by injection of a 1:1 mixture with final concentrations of 200 mM N-ethyl-N’-(3-dimethylaminopropyl)carbodiimide (EDC) and 50 mM N-hydroxysuccinimide (NHS), followed by streptavidin immobilization (50 μg/mL in 10 mM sodium acetate pH 5.0). Unreacted sites on the chip were blocked with 1 M ethanolamine pH 8.0. For all activation, immobilization and passivation steps 0.2x HBS-EP was used as running buffer with a flowrate of 10 μL/min and an injection duration of 420 s on both channels 1 and 2.
All experiments were run in 50 mM HEPES, 50 mM NaCl, 20 mM MgCl2, 5 mM TCEP, 0.03 mg/mL BSA, 0.005% Tween-20, pH 7.30 as running buffer.

[6] = system: Aurora B; conditions: ref Howard et al., 2009; cited from earlier work
[7] = target: the molecule itself; assay: crystal structure; co-crystallised: 240 μM deP Aurora A 122-403 + 1.0 mM AT9283 + 250 μM Mb; sitting drop, 18°C, 0.1 M Bis-Tris pH 5.5, 0.2 M magnesium chloride, 19% (w/v) PEG-3350

## CO[C@@H](C(=O)N1Cc2n[nH]c(NC(=O)c3ccc(N4CCN(C)CC4)cc3)c2C1)c1ccccc1 [Danusertib]
[1]
  IC50: 61 nM
[2]
  weakening of overall affinity by the DFG-in and -out equilibrium: 1.6 fold
[2]; induced-fit step
  tighter binding resulting from the conformational change after drug binding: four orders of magnitude
[3]; 25°C
  k-2 (intercept of kobs,Binding plot): 4.6 ± 3 s⁻¹
  kobs of slow phase, plateau (induced-fit step, k3+k-3): approximately 16 ± 2 s^−1

## mant-ATP
[4]
  k2 (plot of kobs vs concentration, fast phase): 0.8 ± 0.2 µM⁻¹ s⁻¹
  k-2 (plot of kobs vs concentration, fast phase): 50 ± 8 s⁻¹
  kobs of slow phase, plateau (k3+k-3): around 21 ± 1 s^−1

## O=C(Nc1c[nH]nc1-c1nc2ccc(CN3CCOCC3)cc2[nH]1)NC1CC1 [AT9283]
[5]
  slow dissociation, double exponential, fast phase (kobs1 slow-off): (1.1 ± 0.02) × 10^−2 s^−1
  slow dissociation, double exponential, slow phase (kobs2 slow-off): (0.1 ± 0.01) × 10^−2 s^−1
[6]
  IC50: 3 nM

## Cc1ccc(NC(=O)c2ccc(CN3CCN(C)CC3)cc2)cc1Nc1nccc(-c2cccnc2)n1 [Gleevec]
[2]
  weakening of overall affinity by the DFG-in and -out equilibrium: 1.6 fold
[3]; 10°C
  k2, bimolecular rate constant (slope of kobs,Binding vs concentration, fast phase): 1.1 ± 0.3 µM⁻¹ s⁻¹
  k-2, dissociation from intercept of binding plot (kdiss): 31 ± 2 s⁻¹

B1: dephosphorylated Aurora A (122-403) (domain or fragment, human, UniProt O14965 122-403, looked up)
chain: T1 sequence (O14965 122-403)
notes: human Ser/Thr kinase Aurora A, residues 122-403, dephosphorylated (confirmed by mass spectrometry); E. coli BL21(DE3) is named only for the isotope-labelled samples; also called deP Aurora A^122-403; AurA; source: expressed and purified as described before (Zorba et al., 2014)
[7]
  binding result: binds
